Assay results reported in patent publication US7767666B2, “Butyl and butynyl benzyl amine compounds” (Janssen Pharmaceutica NV, priority 2006, dated 2010).

Legend:
human H3 receptor [1] = target: T1, human H3 receptor (Homo sapiens, UniProt Q9Y5N1); experiment: H3 receptor binding; settings: cloned human H3 receptor stably expressed in SK-N-MC cells
T1 construct: expressed in transfected cells

human SERT = target: T2, human SERT (Homo sapiens, UniProt P31645); experiment: Human SERT 3H-citalopram binding; settings: HEK293 membranes expressing the human SERT, rt 1 h
T2 construct: expressed in transfected cells; host or cells: HEK293 membranes
Protocol: Homogenized HEK293 (Human Embryonic Kidney) membranes expressing the human SERT were incubated with ^3H-citalopram (SERT) at rt for 1 h in 50 mM Tris, 120 mM NaCl, 5 mM KCl (pH 7.4). […] The membranes were washed and the radioactivity was counted as above.

Rat SERT = target: T3, Rat SERT (Rattus norvegicus, UniProt P31652); experiment: Rat brain SERT [3H]-citalopram binding; settings: rat brain membranes, 0.6 nM [3H]-Citalopram, 60 min at 25° C.
T3 construct: A rat brain without cerebellum (Zivic Laboratories, Inc.—Pittsburgh, Pa.) was homogenized; tissue Zivic Laboratories, Inc; host or cells: rat brain without cerebellum, membrane preparation
Protocol: The supernatant was removed and re-centrifuged at 15,000 rpm for 30 min. […] Membranes were incubated with 0.6 nM [^3H]-Citalopram plus/minus test compounds for 60 min at 25° C. and harvested by rapid filtration over GF/C glass fiber filters (pretreated with 0.3% polyethylenimine) followed by four washes with ice-cold buffer.

human H3 receptor [2] = target: T1, human H3 receptor; experiment: Cyclic AMP accumulation (β-galactosidase reporter); type: cell-based; settings: for pA2: SK-N-MC cells expressing human H3 receptor and reporter, histamine agonist, forskolin 5 μM, Schild regression of pEC50 values; for Kb: read-out: pA2 (converted)
Protocol: Sublines of SK—N-MC cells were created that expressed a reporter construct and the human H3 receptor. The reporter gene (β-galactosidase) is under the control of multiple cyclic AMP responsive elements. In 96-well plates, histamine was added directly to the cell media followed 5 min later by an addition of forskolin (5 μM final concentration). When appropriate, antagonists were added 10 min prior to agonist addition. After a 6-h incubation at 37° C., the media was aspirated and the cells washed with 200 μL of phosphate-buffered saline followed by a second aspiration. Cells were lysed with 25 μL 0.1× assay buffer (10 mM Na-phosphate, pH 8, 0.2 mM MgSO4, 0.01 mM MnCl2) and incubated at rt for 10 min. […] Color was developed using 25 μL of 1 mg/mL substrate solution (chlorophenolred β-D galactopyranoside; Roche Molecular Biochemicals, Indianapolis, Ind.).

T1 sequence (Q9Y5N1 whole entry): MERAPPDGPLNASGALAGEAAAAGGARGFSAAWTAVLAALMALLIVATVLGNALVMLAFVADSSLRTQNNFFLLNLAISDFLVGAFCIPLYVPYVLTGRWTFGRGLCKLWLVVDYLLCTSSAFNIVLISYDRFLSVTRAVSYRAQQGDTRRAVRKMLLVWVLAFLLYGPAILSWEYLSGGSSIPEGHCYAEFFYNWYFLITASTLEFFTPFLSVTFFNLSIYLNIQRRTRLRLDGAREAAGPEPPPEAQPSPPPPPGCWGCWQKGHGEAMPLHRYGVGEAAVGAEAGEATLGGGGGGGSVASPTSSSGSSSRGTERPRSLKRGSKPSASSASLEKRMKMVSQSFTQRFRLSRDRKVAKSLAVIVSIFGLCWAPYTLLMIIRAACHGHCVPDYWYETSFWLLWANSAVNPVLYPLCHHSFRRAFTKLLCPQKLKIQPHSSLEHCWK
T2 sequence (P31645 whole entry): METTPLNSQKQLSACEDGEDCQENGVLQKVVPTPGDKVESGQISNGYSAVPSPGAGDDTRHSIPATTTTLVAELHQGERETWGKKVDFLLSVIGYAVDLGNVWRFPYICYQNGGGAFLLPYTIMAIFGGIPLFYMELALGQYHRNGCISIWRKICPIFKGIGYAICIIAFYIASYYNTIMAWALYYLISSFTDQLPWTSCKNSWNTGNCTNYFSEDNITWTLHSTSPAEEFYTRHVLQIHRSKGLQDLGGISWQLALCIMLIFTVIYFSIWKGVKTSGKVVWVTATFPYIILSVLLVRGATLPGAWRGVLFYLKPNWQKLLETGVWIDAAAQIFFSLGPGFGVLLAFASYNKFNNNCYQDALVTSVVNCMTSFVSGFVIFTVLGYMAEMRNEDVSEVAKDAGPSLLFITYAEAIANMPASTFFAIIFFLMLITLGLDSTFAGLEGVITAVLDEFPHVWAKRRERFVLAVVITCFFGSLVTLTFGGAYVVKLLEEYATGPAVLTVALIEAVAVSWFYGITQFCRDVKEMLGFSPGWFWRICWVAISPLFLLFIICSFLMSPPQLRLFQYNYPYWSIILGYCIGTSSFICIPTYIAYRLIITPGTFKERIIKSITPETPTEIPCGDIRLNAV
T3 sequence (P31652 whole entry): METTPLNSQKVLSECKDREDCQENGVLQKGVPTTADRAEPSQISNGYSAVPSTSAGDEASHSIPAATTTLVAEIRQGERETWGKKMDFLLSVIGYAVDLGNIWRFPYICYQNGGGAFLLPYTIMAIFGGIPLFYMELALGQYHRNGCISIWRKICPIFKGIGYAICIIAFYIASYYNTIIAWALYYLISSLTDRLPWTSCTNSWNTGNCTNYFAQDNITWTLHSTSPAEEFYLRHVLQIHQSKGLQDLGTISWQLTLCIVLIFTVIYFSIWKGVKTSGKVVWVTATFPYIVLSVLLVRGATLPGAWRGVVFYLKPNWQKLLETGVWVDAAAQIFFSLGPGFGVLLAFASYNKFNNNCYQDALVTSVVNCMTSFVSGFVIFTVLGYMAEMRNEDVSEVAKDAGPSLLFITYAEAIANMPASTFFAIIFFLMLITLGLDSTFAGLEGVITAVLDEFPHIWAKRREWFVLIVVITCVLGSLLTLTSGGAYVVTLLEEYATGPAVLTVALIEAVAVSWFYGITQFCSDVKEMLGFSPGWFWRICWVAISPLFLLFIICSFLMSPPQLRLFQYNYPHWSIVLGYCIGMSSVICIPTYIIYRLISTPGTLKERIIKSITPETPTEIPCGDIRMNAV

Row | Compound | Ki (human H3 receptor [1]) | Ki (Rat SERT) | Kb (human H3 receptor [2]) | Ki (human SERT) | pA2 (human H3 receptor [2])
1 | CNCc1cc(C#CCCNC2CC2)ccc1Oc1ccc(Cl)c(Cl)c1 [Example 15, Cyclopropyl-{4-[4-(3,4-dichloro-phenoxy)-3-methylaminomethyl-phenyl]-but-3-ynyl}-amine] | 17 nM | 1.8 nM |  | 1.4 nM | 
2 | CNCc1cc(C#CCCN(C)C2CC2)ccc1Oc1ccc(SC)cc1 [Example 16, Cyclopropyl-methyl-{4-[3-methylaminomethyl-4-(4-methylsulfanyl-phenoxy)-phenyl]-but-3-ynyl}-amine] | 6.1 nM | 1.3 nM |  | 1.1 nM | 9.10
3 | CNCc1cc(C#CCCN2CCOCC2)ccc1Oc1ccccc1 [Example 6, Methyl-[5-(4-morpholin-4-yl-but-1-ynyl)-2-phenoxy-benzyl]-amine] |  | 11 nM |  | 30 nM | 
4 | CNCc1cc(C#CCCN2CCOCC2)ccc1Sc1cc(C(F)(F)F)ccn1 [Example 36, Methyl-[5-(4-morpholin-4-yl-but-1-ynyl)-2-(4-trifluoromethyl-pyridin-2-ylsulfanyl)-benzyl]-amine] | 190 nM | 32 nM |  |  | 
5 | CNCc1cc(CCCCN2CCN(C3CC3)CC2)ccc1Oc1ccc(SC)cc1 [Example 32, [5-[4-(4-Cyclopropyl-piperazin-1-yl)-butyl]-2-(4-methylsulfanyl-phenoxy)-benzyl]-methyl-amine] | 4.7 nM | 0.6 nM |  | 2 nM | 
6 | CNCc1cc(C#CCCN(C2CC2)C2CC2)ccc1Oc1ccc(Cl)c(Cl)c1 [Example 17, N,N-Dicyclopropyl-{4-[4-(3,4-dichloro-phenoxy)-3-methylaminomethyl-phenyl]-but-3-ynyl}-amine] | 100 nM | 40 nM |  |  | 
7 | CNCc1cc(C#CCCN(C)C2CC2)ccc1Oc1ccc(Cl)c(Cl)c1 [Example 18, Cyclopropyl-{4-[4-(3,4-dichloro-phenoxy)-3-methylaminomethyl-phenyl]-but-3-ynyl}-methyl-amine] | 9.7 nM | 6.4 nM |  | 5.9 nM | 
8 | CNCc1cc(C#CCCN2CCOCC2)ccc1Oc1ccc(F)cc1Cl [Example 28, [2-(2-Chloro-4-fluoro-phenoxy)-5-(4-morpholin-4-yl-but-1-ynyl)-benzyl]-methyl-amine] | 6 nM | 3.4 nM |  | 3.6 nM | 8.78
9 | CNCc1cc(C#CCCN2CCOCC2)ccc1Oc1ccc(Cl)c(C(F)(F)F)c1 [Example 27, [2-(4-Chloro-3-trifluoromethyl-phenoxy)-5-(4-morpholin-4-yl-but-1-ynyl)-benzyl]-methyl-amine] | 13 nM | 7.3 nM |  | 17 nM | 7.89
10 | CNCc1cc(C#CCCN2CCC(F)CC2)ccc1Oc1ccc(Cl)c(Cl)c1 [Example 29, {2-(3,4-Dichloro-phenoxy)-5-[4-(4-fluoro-piperidin-1-yl)-but-1-ynyl]-benzyl}-methyl-amine] | 14 nM | 2.1 nM |  | 27 nM | 
11 | CNCc1cc(C#CCCN2CCNC(=O)C2)ccc1Oc1ccc(SC)cc1 [Example 19, 4-{4-[3-Methylaminomethyl-4-(4-methylsulfanyl-phenoxy)-phenyl]-but-3-ynyl}-piperazin-2-one] | 864 nM | 0.4 nM |  | 1.6 nM | 
12 | CNCc1ccc(C#CCCN2CCOCC2)cc1Oc1ccc(SC)cc1 [Example 37, Methyl-[2-(4-methylsulfanyl-phenoxy)-4-(4-morpholin-4-yl-but-1-ynyl)-benzyl]-amine] | 423 nM | 1.8 nM |  | 3.4 nM | 
13 | CNCc1cc(C#CCCN2CCCN(C(C)C)CC2)ccc1Oc1ccc(SC)cc1 [Example 20, [5-[4-(4-Isopropyl-[1,4]diazepan-1-yl)-but-1-ynyl]-2-(4-methylsulfanyl-phenoxy)-benzyl]-methyl-amine] | 93 nM | 0.7 nM |  | 3.6 nM | 
14 | CNCc1cc(C#CCCN2CCSCC2)ccc1Oc1ccc(Cl)c(Cl)c1 [Example 26, [2-(3,4-Dichloro-phenoxy)-5-(4-thiomorpholin-4-yl-but-1-ynyl)-benzyl]-methyl-amine] | 13 nM | 5.7 nM |  | 6.7 nM | 
15 | CNCc1cc(CCCCN2CCSCC2)ccc1Oc1ccc(SC)cc1 [Example 34, Methyl-[2-(4-methylsulfanyl-phenoxy)-5-(4-thiomorpholin-4-yl-butyl)-benzyl]-amine] | 9.7 nM | 0.9 nM |  | 1.9 nM | 

Further lines, with some results ahead:

Row | Ki (human H3 receptor [1]) | Ki (Rat SERT) | Kb (human H3 receptor [2]) | Compound | Ki (human SERT) | pA2 (human H3 receptor [2])
16 | 1870 nM | 1 nM |  | CNCc1cc(C#CCCN2CCN(C(C)C)C(=O)C2)ccc1Oc1ccc(SC)cc1 [Example 25, 1-Isopropyl-4-{4-[3-methylaminomethyl-4-(4-methylsulfanyl-phenoxy)-phenyl]-but-3-ynyl}-piperazin-2-one] | 1.2 nM | 
17 | 31 nM | 0.5 nM |  | CNCc1cc(C#CCCN2CCN(C(C)C)CC2)ccc1Oc1ccc(SC)cc1 [Example 10, [5-[4-(4-Isopropyl-piperazin-1-yl)-but-1-ynyl]-2-(4-methylsulfanyl-phenoxy)-benzyl]-methyl-amine] | 13 nM | 
18 | 46 nM | 24 nM |  | CSc1ccc(Oc2ccc(C#CCCN3CCCCC3)cc2CN(C)C(=O)OC(C)(C)C)cc1 [Example 35, Methyl-[2-(4-methylsulfanyl-phenoxy)-5-(4-piperidin-1-yl-but-1-ynyl)-benzyl]-carbamic acid tert-butyl ester] |  | 
19 | 10 nM | 5 nM |  | Clc1ccc(Oc2ccc(C#CCCN3CCOCC3)cc2CNC2CC2)cc1 [Example 22, [2-(4-Chloro-phenoxy)-5-(4-morpholin-4-yl-but-1-ynyl)-benzyl]-cyclopropyl-amine] |  | 
20 | 52 nM | 2 nM |  | CNCc1cc(C#CCCN2CCN(C3CC3)CC2)ccc1Oc1ccc(SC)cc1 [Example 13, [5-[4-(4-Cyclopropyl-piperazin-1-yl)-but-1-ynyl]-2-(4-methylsulfanyl-phenoxy)-benzyl]-methyl-amine] | 3.5 nM | 
21 | 17 nM | 0.3 nM |  | CNCc1cc(C#CCCNC2CC2)ccc1Oc1ccc(SC)cc1 [Example 14, Cyclopropyl-{4-[3-methylaminomethyl-4-(4-methylsulfanyl-phenoxy)-phenyl]-but-3-ynyl}-amine] | 12 nM | 
22 | 6 nM | 200 nM | 3.16 nM | CNCc1cc(C#CCCN2CCOCC2)ccc1Oc1ccccn1 [Example 30, Methyl-[5-(4-morpholin-4-yl-but-1-ynyl)-2-(pyridine-2-yloxy)-benzyl]-amine] |  | 
23 | 0.7 nM | 18 nM | 0.251 nM | C(#Cc1ccc(Oc2cccnc2)c(CNC2CC2)c1)CCN1CCOCC1 [Example 23, Cyclopropyl-[5-(4-morpholin-4-yl-but-1-ynyl)-2-(pyridine-3-yloxy)-benzyl]-amine] | 58 nM | 
24 | 3 nM | 10 nM |  | CNCc1cc(C#CCCN2CCOCC2)ccc1Oc1cccc(F)c1 [Example 8, [2-(3-Fluoro-phenoxy)-5-(4-morpholin-4-yl-but-1-ynyl)-benzyl]-methyl-amine] | 24 nM | 8.45
25 | 5.2 nM | 0.4 nM |  | CNCc1cc(CCCCN2CCN(C(C)C)CC2)ccc1Oc1ccc(SC)cc1 [Example 33, [5-[4-(4-Isopropyl-piperazin-1-yl)-butyl]-2-(4-methylsulfanyl-phenoxy)-benzyl]-methyl-amine] | 1.4 nM | 
26 | 5.4 nM | 0.9 nM |  | CNCc1cc(C#CCCN2CCSCC2)ccc1Oc1ccc(SC)cc1 [Example 9, Methyl-[2-(4-methylsulfanyl-phenoxy)-5-(4-thiomorpholin-4-yl-but-1-ynyl)-benzyl]-amine] | 2.5 nM | 
27 | 2 nM | 7 nM |  | CNCc1cc(C#CCCN2CCOCC2)ccc1Oc1cccnc1 [Example 21, Methyl-[5-(4-morpholin-4-yl-but-1-ynyl)-2-(pyridine-3-yloxy)-benzyl]-amine] |  | 
28 | 11 nM | 2.4 nM |  | CNCc1cc(C#CCCN2CCOCC2)ccc1Oc1ccc(Cl)c(Cl)c1 [Example 1, [2-(3,4-Dichloro-phenoxy)-5-(4-morpholin-4-yl-but-1-ynyl)-benzyl]-methyl-amine] | 1.8 nM | 
29 | 4 nM | 1.9 nM |  | CNCc1cc(C#CCCN2CCOCC2)ccc1Oc1ccc(C)nc1 [Example 24, Methyl-[2-(6-methyl-pyridin-3-yloxy)-5-(4-morpholin-4-yl-but-1-ynyl)-benzyl]-amine] | 5 nM | 
30 | 32 nM | 1 nM |  | CNCc1cc(C#CCCN2CCOCC2)ccc1Sc1ccc(Cl)cc1 [Example 31, [2-(4-Chloro-phenylsulfanyl)-5-(4-morpholin-4-yl-but-1-ynyl)-benzyl]-methyl-amine] |  | 
